Results taken from the supplement of paper PMC10307832.

Tests used:
Assay in all cases: relative viability (nuclei count vs DMSO), 5 days (fraction); higher = more cells survive
[1] = test system: 201T
Procedure, shortened: (§1)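 Cells from lung cancer lines were seeded into 1536-well plates and, one day later, dosed by pin tool. Treatments were either a single drug or a fixed dose of an anchor drug with five library-drug doses (not always all listed) in √10 steps. After 5 days, nuclei were stained in a one-step fixation (final 0.05% Triton X-100, 1% formaldehyde, 1 ug/ml Hoechst) and counted on 4× images, and relative viability is the treated-to-vehicle nuclei ratio, as the median of duplicate plates.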

[2] = test system: A-427
Procedure, shortened: as §1

[3] = test system: BEN
Procedure, shortened: as §1

[4] = test system: COR-L 105
Procedure, shortened: as §1

[5] = test system: COR-L23
Procedure, shortened: as §1

[6] = test system: EKVX
Procedure, shortened: as §1

[7] = test system: HARA
Procedure, shortened: as §1

[8] = test system: HCC-15
Procedure, shortened: as §1

[9] = test system: HCC-44
Procedure, shortened: as §1

[10] = test system: HCC-827
Procedure, shortened: as §1

[11] = test system: LK-2
Procedure, shortened: as §1

[12] = test system: NCI-H1437
Procedure, shortened: as §1

[13] = test system: NCI-H1666
Procedure, shortened: as §1

[14] = test system: NCI-H1792
Procedure, shortened: as §1

[15] = test system: NCI-H1975
Procedure, shortened: as §1

[16] = test system: NCI-H23
Procedure, shortened: as §1

[17] = test system: NCI-H358
Procedure, shortened: as §1

[18] = test system: NCI-H441
Procedure, shortened: as §1

[19] = test system: NCI-H596
Procedure, shortened: as §1

[20] = test system: NCI-H650
Procedure, shortened: as §1

[21] = test system: NCI-H838
Procedure, shortened: as §1

[22] = test system: SK-MES-1
Procedure, shortened: as §1

**Q.** Which relative viability ([1]; first compound 0.005 µM) does the source give for `CC1(C)CCC(c2ccc(Cl)cc2)=C(CN2CCN(c3ccc(C(=O)NS(=O)(=O)c4ccc(N[C@H](CCN5CCOCC5)CSc5ccccc5)c(S(=O)(=O)C(F)(F)F)c4)cc3)CC2)C1` [Navitoclax] + C[C@]1(O)C[C@@H](c2nc(-c3ccc4ccc(-c5ccccc5)nc4c3)c3c(N)nccn32)C1 [Linsitinib] (partner 1 µM) here?
**A.** 1.11

**Q.** What about the relative viability ([1]; first compound 0.01581 µM) of the same compound?
**A.** 1.09

**Q.** And the relative viability ([1]; first compound 0.05 µM)?
**A.** 0.95

**Q.** And the relative viability ([1]; first compound 0.1581 µM)?
**A.** 1.05

**Q.** What about the relative viability ([1]; first compound 0.5 µM) of the same compound?
**A.** 1.01

**Q.** What about the relative viability ([2]; first compound 0.005 µM) of the same compound?
**A.** 1.13

**Q.** And the relative viability ([2]; first compound 0.01581 µM)?
**A.** 1.11

**Q.** And the relative viability ([2]; first compound 0.05 µM)?
**A.** 0.911

**Q.** What about the relative viability ([2]; first compound 0.1581 µM) of the same compound?
**A.** 1.12

**Q.** And the relative viability ([2]; first compound 0.5 µM)?
**A.** 1.15

**Q.** And the relative viability ([3]; first compound 0.005 µM)?
**A.** 0.841

**Q.** And the relative viability ([3]; first compound 0.01581 µM)?
**A.** 0.921

**Q.** What about the relative viability ([3]; first compound 0.05 µM) of the same compound?
**A.** 0.958

**Q.** What about the relative viability ([3]; first compound 0.1581 µM) of the same compound?
**A.** 0.911

**Q.** And the relative viability ([3]; first compound 0.5 µM)?
**A.** 0.634

**Q.** And the relative viability ([4]; first compound 0.005 µM)?
**A.** 0.937

**Q.** What about the relative viability ([4]; first compound 0.01581 µM) of the same compound?
**A.** 1.02

**Q.** And the relative viability ([4]; first compound 0.05 µM)?
**A.** 1.05

**Q.** What about the relative viability ([4]; first compound 0.1581 µM) of the same compound?
**A.** 1.09

**Q.** What about the relative viability ([4]; first compound 0.5 µM) of the same compound?
**A.** 0.979

**Q.** And the relative viability ([5]; first compound 0.005 µM)?
**A.** 0.874

**Q.** And the relative viability ([5]; first compound 0.01581 µM)?
**A.** 0.991

**Q.** And the relative viability ([5]; first compound 0.05 µM)?
**A.** 0.97

**Q.** What about the relative viability ([5]; first compound 0.1581 µM) of the same compound?
**A.** 0.853

**Q.** And the relative viability ([5]; first compound 0.5 µM)?
**A.** 0.88

**Q.** What about the relative viability ([6]; first compound 0.005 µM) of the same compound?
**A.** 0.953

**Q.** What about the relative viability ([6]; first compound 0.01581 µM) of the same compound?
**A.** 1.28

**Q.** And the relative viability ([6]; first compound 0.05 µM)?
**A.** 0.954

**Q.** What about the relative viability ([6]; first compound 0.1581 µM) of the same compound?
**A.** 0.953

**Q.** What about the relative viability ([6]; first compound 0.5 µM) of the same compound?
**A.** 1.01

**Q.** And the relative viability ([7]; first compound 0.005 µM)?
**A.** 0.833

**Q.** What about the relative viability ([7]; first compound 0.01581 µM) of the same compound?
**A.** 1.16

**Q.** And the relative viability ([7]; first compound 0.05 µM)?
**A.** 0.749

**Q.** What about the relative viability ([7]; first compound 0.1581 µM) of the same compound?
**A.** 0.918

**Q.** And the relative viability ([7]; first compound 0.5 µM)?
**A.** 0.861

**Q.** And the relative viability ([8]; first compound 0.005 µM)?
**A.** 0.819

**Q.** And the relative viability ([8]; first compound 0.01581 µM)?
**A.** 0.97

**Q.** What about the relative viability ([8]; first compound 0.05 µM) of the same compound?
**A.** 0.783

**Q.** What about the relative viability ([8]; first compound 0.1581 µM) of the same compound?
**A.** 0.842

**Q.** And the relative viability ([8]; first compound 0.5 µM)?
**A.** 0.843

**Q.** What about the relative viability ([9]; first compound 0.005 µM) of the same compound?
**A.** 0.592

**Q.** What about the relative viability ([9]; first compound 0.01581 µM) of the same compound?
**A.** 0.625

**Q.** And the relative viability ([9]; first compound 0.05 µM)?
**A.** 0.594

**Q.** And the relative viability ([9]; first compound 0.1581 µM)?
**A.** 0.649

**Q.** And the relative viability ([9]; first compound 0.5 µM)?
**A.** 0.646

**Q.** What about the relative viability ([10]; first compound 0.005 µM) of the same compound?
**A.** 0.91

**Q.** What about the relative viability ([10]; first compound 0.01581 µM) of the same compound?
**A.** 0.989

**Q.** What about the relative viability ([10]; first compound 0.05 µM) of the same compound?
**A.** 0.864

**Q.** What about the relative viability ([10]; first compound 0.1581 µM) of the same compound?
**A.** 0.926

**Q.** And the relative viability ([10]; first compound 0.5 µM)?
**A.** 0.928

**Q.** What about the relative viability ([11]; first compound 0.005 µM) of the same compound?
**A.** 0.792

**Q.** What about the relative viability ([11]; first compound 0.01581 µM) of the same compound?
**A.** 0.803

**Q.** And the relative viability ([11]; first compound 0.05 µM)?
**A.** 0.805

**Q.** And the relative viability ([11]; first compound 0.1581 µM)?
**A.** 0.51

**Q.** What about the relative viability ([11]; first compound 0.5 µM) of the same compound?
**A.** 0.623

**Q.** And the relative viability ([12]; first compound 0.005 µM)?
**A.** 0.952

**Q.** What about the relative viability ([12]; first compound 0.01581 µM) of the same compound?
**A.** 1.08

**Q.** What about the relative viability ([12]; first compound 0.05 µM) of the same compound?
**A.** 1.02

**Q.** What about the relative viability ([12]; first compound 0.1581 µM) of the same compound?
**A.** 1.09

**Q.** And the relative viability ([12]; first compound 0.5 µM)?
**A.** 0.95

**Q.** What about the relative viability ([13]; first compound 0.005 µM) of the same compound?
**A.** 0.923

**Q.** What about the relative viability ([13]; first compound 0.01581 µM) of the same compound?
**A.** 0.954

**Q.** And the relative viability ([13]; first compound 0.05 µM)?
**A.** 0.82

**Q.** What about the relative viability ([13]; first compound 0.1581 µM) of the same compound?
**A.** 0.705

**Q.** What about the relative viability ([13]; first compound 0.5 µM) of the same compound?
**A.** 0.829

**Q.** What about the relative viability ([14]; first compound 0.005 µM) of the same compound?
**A.** 0.554

**Q.** What about the relative viability ([14]; first compound 0.01581 µM) of the same compound?
**A.** 0.629

**Q.** And the relative viability ([14]; first compound 0.05 µM)?
**A.** 0.414

**Q.** And the relative viability ([14]; first compound 0.1581 µM)?
**A.** 0.539

**Q.** What about the relative viability ([14]; first compound 0.5 µM) of the same compound?
**A.** 0.609

**Q.** What about the relative viability ([15]; first compound 0.005 µM) of the same compound?
**A.** 1.01

**Q.** And the relative viability ([15]; first compound 0.01581 µM)?
**A.** 1.14

**Q.** What about the relative viability ([15]; first compound 0.05 µM) of the same compound?
**A.** 1.07

**Q.** What about the relative viability ([15]; first compound 0.1581 µM) of the same compound?
**A.** 0.869

**Q.** What about the relative viability ([15]; first compound 0.5 µM) of the same compound?
**A.** 1

**Q.** What about the relative viability ([16]; first compound 0.005 µM) of the same compound?
**A.** 0.628

**Q.** And the relative viability ([16]; first compound 0.01581 µM)?
**A.** 0.691

**Q.** And the relative viability ([16]; first compound 0.05 µM)?
**A.** 0.559

**Q.** What about the relative viability ([16]; first compound 0.1581 µM) of the same compound?
**A.** 0.509

**Q.** What about the relative viability ([16]; first compound 0.5 µM) of the same compound?
**A.** 0.642

**Q.** What about the relative viability ([17]; first compound 0.005 µM) of the same compound?
**A.** 0.763

**Q.** And the relative viability ([17]; first compound 0.01581 µM)?
**A.** 0.956

**Q.** What about the relative viability ([17]; first compound 0.05 µM) of the same compound?
**A.** 0.813

**Q.** What about the relative viability ([17]; first compound 0.1581 µM) of the same compound?
**A.** 0.898

**Q.** What about the relative viability ([17]; first compound 0.5 µM) of the same compound?
**A.** 0.822

**Q.** And the relative viability ([18]; first compound 0.005 µM)?
**A.** 0.449

**Q.** What about the relative viability ([18]; first compound 0.01581 µM) of the same compound?
**A.** 0.587

**Q.** What about the relative viability ([18]; first compound 0.05 µM) of the same compound?
**A.** 0.412

**Q.** And the relative viability ([18]; first compound 0.1581 µM)?
**A.** 0.44

**Q.** And the relative viability ([18]; first compound 0.5 µM)?
**A.** 0.706

**Q.** What about the relative viability ([19]; first compound 0.005 µM) of the same compound?
**A.** 1.09

**Q.** What about the relative viability ([19]; first compound 0.01581 µM) of the same compound?
**A.** 1.09

**Q.** And the relative viability ([19]; first compound 0.05 µM)?
**A.** 0.722

**Q.** And the relative viability ([19]; first compound 0.1581 µM)?
**A.** 1

**Q.** What about the relative viability ([19]; first compound 0.5 µM) of the same compound?
**A.** 1.02

**Q.** And the relative viability ([20]; first compound 0.005 µM)?
**A.** 0.703

**Q.** What about the relative viability ([20]; first compound 0.01581 µM) of the same compound?
**A.** 0.817

**Q.** What about the relative viability ([20]; first compound 0.05 µM) of the same compound?
**A.** 0.97

**Q.** And the relative viability ([20]; first compound 0.1581 µM)?
**A.** 0.767

**Q.** And the relative viability ([20]; first compound 0.5 µM)?
**A.** 0.846

**Q.** What about the relative viability ([21]; first compound 0.005 µM) of the same compound?
**A.** 0.89

**Q.** And the relative viability ([21]; first compound 0.01581 µM)?
**A.** 1.11

**Q.** And the relative viability ([21]; first compound 0.05 µM)?
**A.** 1.12

**Q.** What about the relative viability ([21]; first compound 0.1581 µM) of the same compound?
**A.** 1.03

**Q.** What about the relative viability ([21]; first compound 0.5 µM) of the same compound?
**A.** 1.03

**Q.** And the relative viability ([22]; first compound 0.005 µM)?
**A.** 1.03

**Q.** And the relative viability ([22]; first compound 0.01581 µM)?
**A.** 1.19

**Q.** And the relative viability ([22]; first compound 0.05 µM)?
**A.** 1.19

**Q.** What about the relative viability ([22]; first compound 0.1581 µM) of the same compound?
**A.** 1.02

**Q.** What about the relative viability ([22]; first compound 0.5 µM) of the same compound?
**A.** 1.1
